Laboratory results taken from the supplement of paper PMC6045584.
± gives the standard deviation of the averaged measurements.

How the values were obtained:
NUTLIN3 = compound: COc1ccc(C2=N[C@@H](c3ccc(Cl)cc3)[C@@H](c3ccc(Cl)cc3)N2C(=O)N2CCNC(=O)C2)c(OC(C)C)c1 [NUTLIN3]; assay: surviving fraction relative to DMSO-only wells; higher = less growth inhibition; conditions: exposure time: 5 days
Outline: (§1)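 Viability values are CellTiter-Glo luminescence readings, given as surviving fraction against the median of DMSO-only wells. The readings were taken after 10 minutes at room temperature, following five days of continuous exposure to inhibitors at 0.5, 1, 5, 10, 50, 100, 500 and 1000 nM that began 24 hours after log-phase tumour cell lines were seeded at 250–500 cells per well in 384-well plates. Every line was screened three times and kept only if replicate Pearson r >0.7 and median Z' >0.3.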

SALINOMYCIN = compound: CC[C@@H](C(=O)[C@@H](C)[C@@H](O)[C@H](C)[C@@H]1O[C@@H]([C@@H](CC)C(=O)O)CC[C@@H]1C)[C@H]1O[C@]2(C=C[C@@H](O)[C@]3(CC[C@@](C)([C@H]4CC[C@](O)(CC)[C@H](C)O4)O3)O2)[C@H](C)C[C@@H]1C [SALINOMYCIN]; assay: as above; conditions: exposure time: 5 days
Outline: as §1

Row | Test System | surviving fraction (NUTLIN3; 0.5 nM) | surviving fraction (NUTLIN3; 1 nM) | surviving fraction (NUTLIN3; 5 nM) | surviving fraction (NUTLIN3; 10 nM) | surviving fraction (NUTLIN3; 50 nM) | surviving fraction (NUTLIN3; 100 nM) | surviving fraction (NUTLIN3; 500 nM) | surviving fraction (NUTLIN3; 1000 nM) | surviving fraction (SALINOMYCIN; 0.5 nM) | surviving fraction (SALINOMYCIN; 1 nM) | surviving fraction (SALINOMYCIN; 5 nM) | surviving fraction (SALINOMYCIN; 10 nM) | surviving fraction (SALINOMYCIN; 50 nM) | surviving fraction (SALINOMYCIN; 100 nM) | surviving fraction (SALINOMYCIN; 500 nM) | surviving fraction (SALINOMYCIN; 1000 nM)
1 | 22RV1 PROSTATE | 1.01 ± 0.046 | 1.04 ± 0.013 | 0.96 ± 0.068 | 0.99367 ± 0.00058 | 0.981 ± 0.079 | 1.01 ± 0.074 | 0.95 ± 0.062 | 0.777 ± 0.047 | 1.01 ± 0.075 | 0.987 ± 0.053 | 1 ± 0.06 | 0.942 ± 0.059 | 0.817 ± 0.031 | 0.448 ± 0.038 | 0.195 ± 0.021 | 0.125 ± 0.015
2 | 93VU HEADNECK | 1 ± 0.12 | 0.982 ± 0.14 | 1.09 ± 0.1 | 1.1 ± 0.076 | 1.12 ± 0.12 | 1.21 ± 0.013 | 1.05 ± 0.12 | 1.02 ± 0.025 | 0.887 ± 0.048 | 0.885 ± 0.11 | 1.01 ± 0.04 | 1.05 ± 0.023 | 0.976 ± 0.08 | 0.91 ± 0.053 | 0.304 ± 0.041 | 0.177 ± 0.005
3 | 143B BONE | 1.04 ± 0.019 | 1.02 ± 0.022 | 1.03 ± 0.029 | 1.024 ± 0.0085 | 1.06 ± 0.039 | 1.029 ± 0.0099 | 1.05 ± 0.017 | 1.01 ± 0.073 | 0.98 ± 0.044 | 0.99 ± 0.026 | 1.02 ± 0.023 | 1.01 ± 0.027 | 1.03 ± 0.018 | 1.03 ± 0.035 | 0.9815 ± 0.00071 | 0.763 ± 0.028
4 | A549 LUNG | 0.984 ± 0.03 | 0.996 ± 0.031 | 0.963 ± 0.026 | 0.953 ± 0.016 | 1.01 ± 0.084 | 1.02 ± 0.019 | 1.04 ± 0.053 | 1.08 ± 0.061 | 0.944 ± 0.028 | 0.9123 ± 0.005 | 0.95 ± 0.033 | 0.907 ± 0.022 | 1.03 ± 0.028 | 0.97 ± 0.03 | 0.729 ± 0.018 | 0.528 ± 0.033
5 | ASKA SYNOVIAL | 1.04 ± 0.04 | 1.13 ± 0.039 | 1.2 ± 0.055 | 1.03 ± 0.015 | 1.02 ± 0.064 | 1.05 ± 0.041 | 0.748 ± 0.035 | 0.512 ± 0.014 | 1.05 ± 0.088 | 0.926 ± 0.086 | 1.02 ± 0.1 | 0.582 ± 0.048 | 1.14 ± 0.034 | 1.03 ± 0.016 | 0.797 ± 0.073 | 0.441 ± 0.037
6 | BT20 BREAST | 1.1 ± 0.18 | 1.11 ± 0.14 | 1.09 ± 0.07 | 1.01 ± 0.14 | 1.05 ± 0.24 | 1.07 ± 0.23 | 1.15 ± 0.25 | 1.12 ± 0.18 | 0.964 ± 0.16 | 1.05 ± 0.14 | 1.12 ± 0.076 | 1.3 ± 0.25 | 1.32 ± 0.19 | 1.19 ± 0.25 | 1.22 ± 0.31 | 1.13 ± 0.3
7 | BT549 BREAST | 1.16 ± 0.13 | 1.07 ± 0.11 | 1.07 ± 0.063 | 1.12 ± 0.11 | 1.18 ± 0.1 | 1.07 ± 0.067 | 1.17 ± 0.13 | 1.08 ± 0.25 | 0.999 ± 0.033 | 1.18 ± 0.079 | 1.02 ± 0.056 | 0.93 ± 0.031 | 0.891 ± 0.35 | 0.73 ± 0.39 | 0.523 ± 0.2 | 0.341 ± 0.079
8 | C33A CERVIX | 0.888 ± 0.04 | 0.928 ± 0.034 | 0.919 ± 0.084 | 0.905 ± 0.039 | 0.978 ± 0.094 | 1.04 ± 0.055 | 0.959 ± 0.068 | 1.03 ± 0.094 | 0.812 ± 0.13 | 0.769 ± 0.16 | 1 ± 0.12 | 1.05 ± 0.21 | 1.08 ± 0.035 | 1.08 ± 0.13 | 0.328 ± 0.024 | 0.25 ± 0.0067
9 | CADOES1 SOFT TISSUE | 0.96 ± 0.077 | 0.925 ± 0.056 | 0.982 ± 0.036 | 0.801 ± 0.17 | 0.841 ± 0.077 | 0.874 ± 0.037 | 0.741 ± 0.014 | 0.517 ± 0.017 | 0.978 ± 0.096 | 0.959 ± 0.036 | 0.838 ± 0.14 | 0.918 ± 0.15 | 0.856 ± 0.041 | 0.454 ± 0.1 | 0.147 ± 0.0061 | 0.105 ± 0.004
10 | CAL51 BREAST | 0.944 ± 0.012 | 0.928 ± 0.059 | 0.999 ± 0.053 | 0.979 ± 0.018 | 1.05 ± 0.054 | 1.01 ± 0.038 | 0.816 ± 0.1 | 0.707 ± 0.09 | 0.937 ± 0.041 | 0.86 ± 0.12 | 0.984 ± 0.018 | 0.969 ± 0.021 | 1 ± 0.017 | 0.972 ± 0.034 | 0.615 ± 0.022 | 0.359 ± 0.018
11 | CAL72 BONE | 1.09 ± 0.029 | 1.07 ± 0.033 | 1.1 ± 0.037 | 1.08 ± 0.055 | 1.08 ± 0.027 | 1.13 ± 0.043 | 1.1 ± 0.084 | 1.11 ± 0.024 | 1.05 ± 0.037 | 1.02 ± 0.044 | 1.04 ± 0.018 | 1.06 ± 0.027 | 1.11 ± 0.021 | 1.1 ± 0.049 | 0.647 ± 0.087 | 0.564 ± 0.031
12 | CAL120 BREAST | 0.921 ± 0.03 | 0.919 ± 0.051 | 0.933 ± 0.039 | 0.924 ± 0.02 | 0.9877 ± 0.005 | 0.9757 ± 0.0032 | 0.981 ± 0.012 | 0.977 ± 0.029 | 0.8885 ± 0.0083 | 0.893 ± 0.0056 | 0.877 ± 0.021 | 0.8868 ± 0.0073 | 0.661 ± 0.01 | 0.334 ± 0.015 | 0.088 ± 0.0061 | 0.0535 ± 0.0022
13 | CASKI CERVIX | 0.945 ± 0.0061 | 0.899 ± 0.053 | 0.9873 ± 0.0035 | 0.979 ± 0.027 | 1.04 ± 0.074 | 1.05 ± 0.026 | 0.972 ± 0.042 | 0.988 ± 0.05 | 0.93 ± 0.055 | 0.921 ± 0.039 | 0.868 ± 0.037 | 0.911 ± 0.038 | 0.703 ± 0.0027 | 0.583 ± 0.028 | 0.3273 ± 0.0031 | 0.289 ± 0.024
14 | CHLA90 AUTONOMIC GANGLIA | 1.02 ± 0.018 | 1.05 ± 0.043 | 1 ± 0.039 | 0.923 ± 0.025 | 0.987 ± 0.049 | 1.01 ± 0.019 | 1.06 ± 0.022 | 1.02 ± 0.066 | 0.992 ± 0.017 | 0.9167 ± 0.0091 | 0.926 ± 0.014 | 0.396 ± 0.01 | 0.949 ± 0.069 | 0.877 ± 0.048 | 0.169 ± 0.028 | 0.0267 ± 0.00058
15 | CME SYNOVIAL | 1.18 ± 0.1 | 1.29 ± 0.17 | 1.32 ± 0.16 | 1.24 ± 0.13 | 1.36 ± 0.16 | 1.44 ± 0.19 | 1.4 ± 0.073 | 1.22 ± 0.09 | 1.12 ± 0.14 | 0.826 ± 0.031 | 1.06 ± 0.15 | 0.177 ± 0.069 | 1.14 ± 0.07 | 0.947 ± 0.094 | 0.351 ± 0.018 | 0.141 ± 0.0067
16 | COLO320DM LARGE INTESTINE | 1.11 ± 0.093 | 1.07 ± 0.019 | 1.08 ± 0.079 | 1.1 ± 0.16 | 1.15 ± 0.16 | 1.21 ± 0.069 | 1.12 ± 0.065 | 1.19 ± 0.17 | 1.05 ± 0.037 | 1.04 ± 0.036 | 1.11 ± 0.026 | 0.522 ± 0.056 | 1.14 ± 0.12 | 0.966 ± 0.081 | 0.388 ± 0.0066 | 0.1 ± 0.006
17 | DU4475 BREAST | 0.825 ± 0.3 | 0.909 ± 0.2 | 1 ± 0.52 | 1.13 ± 0.49 | 0.965 ± 0.39 | 1.12 ± 0.51 | 0.832 ± 0.42 | 0.673 ± 0.47 | 0.949 ± 0.23 | 0.893 ± 0.28 | 0.857 ± 0.28 | 0.9 ± 0.33 | 0.793 ± 0.27 | 0.665 ± 0.32 | 0.293 ± 0.18 | 0.17 ± 0.078
18 | H23 LUNG | 1.02 ± 0.062 | 1.01 ± 0.056 | 1.02 ± 0.034 | 1.04 ± 0.048 | 1.08 ± 0.055 | 1.09 ± 0.085 | 1.05 ± 0.044 | 0.912 ± 0.031 | 0.969 ± 0.043 | 0.957 ± 0.055 | 0.9683 ± 0.0096 | 0.959 ± 0.04 | 1.21 ± 0.03 | 1.19 ± 0.028 | 0.622 ± 0.012 | 0.399 ± 0.007
19 | HCC78 LUNG | 1 ± 0.075 | 0.918 ± 0.053 | 0.918 ± 0.19 | 0.883 ± 0.18 | 0.946 ± 0.12 | 0.877 ± 0.11 | 0.889 ± 0.12 | 0.941 ± 0.07 | 0.833 ± 0.18 | 0.693 ± 0.063 | 0.855 ± 0.17 | 0.948 ± 0.071 | 0.72 ± 0.095 | 0.697 ± 0.24 | 0.228 ± 0.014 | 0.143 ± 0.022
20 | HCC202 BREAST | 1.1 ± 0.15 | 1.07 ± 0.14 | 1.14 ± 0.14 | 1.15 ± 0.17 | 1.2 ± 0.12 | 1.27 ± 0.13 | 1.23 ± 0.16 | 1.23 ± 0.21 | 1.39 ± 0.31 | 0.95 ± 0.16 | 0.918 ± 0.26 | 1.13 ± 0.17 | 1.03 ± 0.18 | 0.737 ± 0.16 | 0.189 ± 0.037 | 0.109 ± 0.0082
